Reference: PMC10692721, “Drug discovery for heart failure targeting myosin-binding protein C” (The Journal of Biological Chemistry, 2023)
Entries after “also recorded” stand apart in the source; their conditions may differ. *1 amine or outer side, *2 acyl side, *3 side chain or, on linkers, in order; H or OH if unused. Where a SMILES comes first, the peptide text is derived from it. Bridges are numbered along the chain shown (N, C = ends). [ ]: non-standard residue; d: D form. The star is where a group is joined. Orn(4R-OH,5R-OH) = O=C([C@H](C[C@@H](O)[C@@H](O)N[*:3])N[*:1])[*:2]; Tetradecanoyl(10R,12S-Me2) = CC[C@H](C)C[C@H](C)CCCCCCCCC(=O)*; hTyr(3S-OH,4S-OH) = N[C@H](C(=O)O)[C@H](O)[C@@H](O)c1ccc(O)cc1; Gln(3R-OH) = NC(=O)C[C@@H](O)[C@H](N)C(=O)O; Pro(3S-OH) = O=C(O)[C@H]1NCC[C@@H]1O; Hyp = O=C(O)[C@@H]1C[C@@H](O)CN1

Tests used:
[1] = system: FMAL-actin plus TMR-cC0-C2; assay: Selleck library HTS, 473 nm excitation (FLT of FMAL-actin with TMR-cC0-C2, FLT-FRET); assay type: binding, human
Outline: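 Donor fluorescence lifetime was then recorded. Waveforms were fit to a single exponential, and ΔFLT was obtained after a moving-median plate-gradient correction (half-row window), rescaled by the median DMSO lifetime.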

[2] = system: TMR-cC0-C2; assay: Selleck library HTS, 532 nm excitation (FLT of TMR-cC0-C2 in presence of FMAL-actin); assay type: binding, human
[3] = system: rabbit fast skeletal (psoas) myofibrils; assay: Skeletal myofibril ATPase assay; assay type: biochemical; conditions: 50 μM compound, pCa 8 to pCa 4
Description: Rabbit psoas and bovine cardiac myofibrils were prepared as described in our previous study ([17]). An enzyme-coupled, NADH-linked ATPase assay was used to measure skeletal and cardiac myofibril ATPase activity in 96-well microplates at 23 °C. Ionic strength was maintained below 0.2 M, so myofilaments remained insoluble and stable ([32]). To achieve optimal enzymatic activities, buffers for skeletal and cardiac myofibrils differed slightly ([33], [34]): skeletal in 50 mM MOPS, 100 mM KCl, 5 mM MgCl2, 1 mM EGTA, pH 7.0; cardiac in 20 mM MOPS, 35 mM NaCl, 5 mM MgCl2, 1 mM EGTA, pH 7.0. Each well in the microplate contained an assay mix of 0.84 mM phosphoenolpyruvate, 0.17 mM NADH, 10 U/vol pyruvate kinase, 20 U/vol lactate dehydrogenase. The concentration of free Ca^2+ was controlled by EGTA buffering ([35]). Myofibrils were dispensed in microplates with a multichannel pipette and were incubated with assay mix plus compound of interest for 20 min at 23 °C. The concentration of myofibrils used was 0.01 mg/ml for skeletal and 0.05 mg/ml for cardiac myofibrils. The assay was started upon the addition of ATP, at a final concentration of 2.1 mM (total volume to 200 μl), and absorbance was recorded at 340 nm in a SpectraMax Plus microplate spectrophotometer from Molecular Devices. The steady-state myofibrillar ATPase rate was measured from NADH oxidation, measured as the rate of decrease in absorption at 340 nm for 30 min, with absorption data collected every 15 s. All data and statistical analysis of steady-state kinetics were conducted with the OriginPro program. The results were fitted with the Hill equation:(6) V=V0+(Vmax/1+10^−n∗^(pCa50−pCa)) where V is the ATPase rate and n is the Hill coefficient.
ATPase activity is reported on the μmol ATP/mg protein/min scale. Average data are presented as mean ± SD. Sample means are derived from three different myofibril preps (N = 3), each done in duplicate (n = 6).
The effects of compounds on ATPase activity of myofibrils were determined in the presence of 50 μM compound, across a 12-point pCa range from 4.0 (activation) to 8.0 (relaxation). The calcium sensitivity (pCa50) was determined by fitting the curves to the Hill equation. In all experiments, a 1% DMSO-only control was included. The normalized ATPase activity of the selected compounds can be found in Figure 6.

[4] = system: FMAL-actin/PKA-phosphorylated TMR-cC0-C2 interaction; assay: FLT-FRET concentration-response assay, FMAL-actin plus PKA-phosphorylated TMR-cC0-C2; assay type: binding, human; conditions: phosphorylated cC0-C2
Description: Compounds identified as initial hits were further examined to determine the concentration–response curves for seven conditions ([1]): FMAL-actin alone identified actin-binding compounds that alter the FLT of FMAL-actin ([2]).
Fluorescence lifetime (FLT) measurements were acquired using a high-throughput FLT plate reader (Fluorescence Innovations, Inc) ([14], [27]), provided by Photonic Pharma LLC. […] The observed waveforms were analyzed as described previously ([15], [28]).
The primary hits were dissolved in DMSO to make a 10 mM stock solution, which was serially diluted in 96-well mother plates. Hits were screened at eight concentrations (0.5–100 μM). […] Compounds (1 μl) were transferred from the mother plates into 384-well plates using a Mosquito HV liquid handler (TTP Labtech Ltd, Hertfordshire, UK). The same procedure of dispensing as for the pilot screening was applied in the concentration-response assays. Concentration dependence of the FLT-FRET (E/EDMSO) or FLT-TMR (Δτ) change data was fit to a Hill equation only under certain conditions to help guide the eye (Fig. 4).

[5] = system: FMAL-actin/TMR-cC0-C2 interaction; assay: FLT-FRET concentration-response assay, FMAL-actin plus TMR-cC0-C2; assay type: binding, human; conditions: unphosphorylated cC0-C2
Outline: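 Hits tested at eight concentrations (0.5–100 μM) and read on a high-throughput fluorescence lifetime plate reader. Hill fits applied only under certain conditions.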

[6] = robust z-score, hit threshold ±4, 30 μM compound

effect on FLT-FRET / binding between FMAL-actin and PKA-phosphorylated TMR-cC0-C2 (in words) [4]: decreasing the binding
effect on FLT-FRET / binding between FMAL-actin and TMR-cC0-C2 (in words) [5]: increased the binding
Compound: CC[C@H](C)C[C@H](C)CCCCCCCCC(=O)N[C@H]1C[C@@H](O)[C@@H](O)NC(=O)[C@@H]2[C@@H](O)CCN2C(=O)[C@H]([C@H](O)CC(N)=O)NC(=O)[C@H]([C@H](O)[C@@H](O)c2ccc(O)cc2)NC(=O)[C@@H]2C[C@@H](O)CN2C(=O)[C@H]([C@@H](C)O)NC1=O [Pneumocandin B0] ({Tetradecanoyl(10R,12S-Me2)}-[Orn(4R-OH,5R-OH)]T[Hyp][hTyr(3S-OH,4S-OH)][Gln(3R-OH)][Pro(3S-OH)]; lactam 1-C)
473-nm Δτ, Repeat 1 ([1]; initial screen, 30 μM compound): -0.050 ns
473-nm Δτ, Repeat 2 ([1]; initial screen, 30 μM compound): -0.053 ns
473-nm z-score (based on avg Δτ) [1, 6]: -2.83
532-nm Δτ, Repeat 1 ([2]; initial screen, 30 μM compound): 0.179 ns
532-nm Δτ, Repeat 2 ([2]; initial screen, 30 μM compound): 0.149 ns
532-nm z-score (based on avg Δτ) [2, 6]: 10.04
effect on skeletal MF ATPase activity (in words) [3]: inhibitory effect; also recorded: affected ATPase
